# From patent US20240139211A1, “METHODS AND COMPOSITIONS FOR TREATING AMYOTROPHIC LATERAL SCLEROSIS” (Amylyx Pharmaceuticals, Inc., priority 2022, published 2024)
# Values joined by “and” are separate entries in the source; they are usually repeats but may differ in a detail not shown here. Identical values can stand only once. Counter-ions that a name gives are not always drawn.
# Columns and labels:
# OATP1B3 = OATP1B3 (Homo sapiens, UniProt Q9NPD5); assay: OATP1B3 inhibition, atorvastatin uptake in transfected HEK cells; conditions: for Influx Rate of […] Atorvastatin (5 min): OATP1B3-HEK Cells
# Sequence of OATP1B3 (Q9NPD5 whole entry): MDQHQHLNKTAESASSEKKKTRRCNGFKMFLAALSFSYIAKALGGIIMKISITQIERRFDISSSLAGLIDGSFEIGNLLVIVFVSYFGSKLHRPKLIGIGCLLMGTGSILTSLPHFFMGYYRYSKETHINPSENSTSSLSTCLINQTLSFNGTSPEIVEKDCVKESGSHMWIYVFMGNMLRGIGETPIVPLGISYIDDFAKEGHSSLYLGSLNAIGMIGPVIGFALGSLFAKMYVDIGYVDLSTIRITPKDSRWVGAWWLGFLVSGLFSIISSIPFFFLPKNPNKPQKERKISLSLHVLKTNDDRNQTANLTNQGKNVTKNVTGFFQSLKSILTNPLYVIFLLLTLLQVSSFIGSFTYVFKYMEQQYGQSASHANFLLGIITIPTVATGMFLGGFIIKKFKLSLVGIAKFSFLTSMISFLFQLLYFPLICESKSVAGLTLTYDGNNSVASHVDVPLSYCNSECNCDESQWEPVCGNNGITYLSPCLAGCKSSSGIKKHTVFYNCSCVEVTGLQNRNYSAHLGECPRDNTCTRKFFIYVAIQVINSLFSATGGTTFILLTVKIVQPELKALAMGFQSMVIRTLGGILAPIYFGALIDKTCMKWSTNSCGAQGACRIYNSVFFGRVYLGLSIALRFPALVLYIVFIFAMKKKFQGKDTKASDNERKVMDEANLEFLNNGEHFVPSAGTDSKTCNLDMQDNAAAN
# OATP1B1 = OATP1B1 (Homo sapiens, UniProt Q9Y6L6); assay: OATP1B1 inhibition, atorvastatin uptake in transfected HEK cells
# Sequence of OATP1B1 (Q9Y6L6 whole entry): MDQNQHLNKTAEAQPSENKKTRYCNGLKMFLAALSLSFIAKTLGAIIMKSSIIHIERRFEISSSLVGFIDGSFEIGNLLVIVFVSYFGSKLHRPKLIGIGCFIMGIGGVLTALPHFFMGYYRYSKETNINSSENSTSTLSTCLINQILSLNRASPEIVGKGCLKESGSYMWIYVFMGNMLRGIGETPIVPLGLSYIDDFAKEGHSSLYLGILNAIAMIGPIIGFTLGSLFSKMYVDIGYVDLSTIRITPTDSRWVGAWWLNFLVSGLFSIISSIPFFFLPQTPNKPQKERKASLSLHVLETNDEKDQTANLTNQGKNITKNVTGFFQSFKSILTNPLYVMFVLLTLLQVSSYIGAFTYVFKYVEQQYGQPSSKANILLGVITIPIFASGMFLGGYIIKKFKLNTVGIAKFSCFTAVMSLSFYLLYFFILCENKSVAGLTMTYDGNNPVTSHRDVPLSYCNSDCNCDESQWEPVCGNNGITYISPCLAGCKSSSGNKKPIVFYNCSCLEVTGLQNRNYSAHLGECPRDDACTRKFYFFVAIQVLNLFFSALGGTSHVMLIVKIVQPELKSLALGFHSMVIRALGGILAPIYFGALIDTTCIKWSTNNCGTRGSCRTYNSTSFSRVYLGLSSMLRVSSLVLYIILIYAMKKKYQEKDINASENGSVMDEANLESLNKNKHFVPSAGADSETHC
# OAT3 = biological target: T1, OAT3 (Homo sapiens, UniProt Q8TCC7); assay: Substrate of OAT3, uptake in HEK293 cells; conditions: probe substrate 1 μM
# T1 sequence (Q8TCC7 1-542): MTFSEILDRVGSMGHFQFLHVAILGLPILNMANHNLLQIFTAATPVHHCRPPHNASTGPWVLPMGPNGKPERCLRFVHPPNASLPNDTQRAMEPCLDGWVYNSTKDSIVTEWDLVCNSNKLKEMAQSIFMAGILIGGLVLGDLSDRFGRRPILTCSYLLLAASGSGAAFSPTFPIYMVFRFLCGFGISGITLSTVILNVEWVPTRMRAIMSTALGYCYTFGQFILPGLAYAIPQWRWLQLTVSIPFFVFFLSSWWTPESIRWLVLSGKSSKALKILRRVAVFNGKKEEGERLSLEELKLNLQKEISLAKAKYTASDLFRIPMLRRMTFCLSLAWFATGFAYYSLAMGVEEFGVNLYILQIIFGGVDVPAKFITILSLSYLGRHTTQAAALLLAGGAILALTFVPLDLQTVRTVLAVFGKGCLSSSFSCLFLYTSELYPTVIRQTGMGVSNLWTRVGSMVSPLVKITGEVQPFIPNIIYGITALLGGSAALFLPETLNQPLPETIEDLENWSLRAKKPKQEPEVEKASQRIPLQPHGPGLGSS
# Description: (§1) Vector-transfected HEK cells were used as a control.
# MATE2K = MATE2K (Homo sapiens, UniProt Q86VL8); assay: MATE2K inhibition, metformin uptake in transfected HEK cells; conditions: no inhibitor
# Sequence of MATE2K (Q86VL8 1-566 isoform Q86VL8-3): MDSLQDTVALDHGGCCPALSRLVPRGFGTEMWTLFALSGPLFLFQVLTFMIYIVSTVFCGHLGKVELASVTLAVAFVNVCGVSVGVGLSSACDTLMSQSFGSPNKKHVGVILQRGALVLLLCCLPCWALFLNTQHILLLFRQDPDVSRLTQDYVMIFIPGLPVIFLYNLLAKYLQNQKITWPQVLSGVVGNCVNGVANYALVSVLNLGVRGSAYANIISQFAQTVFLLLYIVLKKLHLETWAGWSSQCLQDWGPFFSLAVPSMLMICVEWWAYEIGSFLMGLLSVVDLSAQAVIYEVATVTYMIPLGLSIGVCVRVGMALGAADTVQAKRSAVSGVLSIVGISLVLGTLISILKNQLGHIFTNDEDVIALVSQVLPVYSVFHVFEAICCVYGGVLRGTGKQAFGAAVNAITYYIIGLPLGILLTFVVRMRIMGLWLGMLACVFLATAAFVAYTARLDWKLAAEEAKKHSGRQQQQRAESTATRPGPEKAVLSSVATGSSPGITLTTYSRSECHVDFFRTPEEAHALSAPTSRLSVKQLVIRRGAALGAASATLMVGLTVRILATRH
# MATE1 = biological target: T2, MATE1 (Homo sapiens, UniProt Q96FL8); assay: MATE1 inhibition, metformin uptake in transfected HEK cells; conditions: no inhibitor
# T2 sequence (Q96FL8 1-570): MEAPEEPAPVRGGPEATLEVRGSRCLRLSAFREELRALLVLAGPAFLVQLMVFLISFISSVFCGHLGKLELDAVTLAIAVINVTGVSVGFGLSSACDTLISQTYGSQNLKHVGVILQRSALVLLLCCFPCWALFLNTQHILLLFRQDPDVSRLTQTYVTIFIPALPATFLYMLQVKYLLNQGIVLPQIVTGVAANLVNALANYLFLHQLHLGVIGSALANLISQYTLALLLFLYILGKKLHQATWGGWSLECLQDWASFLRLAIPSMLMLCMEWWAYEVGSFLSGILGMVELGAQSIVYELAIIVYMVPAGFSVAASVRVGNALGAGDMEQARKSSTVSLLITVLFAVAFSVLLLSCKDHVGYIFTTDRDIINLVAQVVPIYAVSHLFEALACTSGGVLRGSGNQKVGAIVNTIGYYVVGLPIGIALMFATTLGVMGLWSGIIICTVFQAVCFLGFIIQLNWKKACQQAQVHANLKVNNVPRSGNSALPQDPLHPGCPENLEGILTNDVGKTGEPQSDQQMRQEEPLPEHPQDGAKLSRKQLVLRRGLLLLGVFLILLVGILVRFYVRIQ
# [1] = Rat drug-drug interaction study TDF + AMX0035: urine recovery; type: in vivo; conditions: for Amount Recovered: male Sprague Dawley rats, oral, total urine, 24 hour collection
# Experimental: Total urine recovery data for Tenofovir, TDF, and PB was calculated for the 24 hour collection period on Days 1 and 5. […] The reported urine recovery data included amount recovered (ng) and percent recovered (%) for […]. Individual and mean Tenofovir, TDF, and PB urine recovery data were presented with SD, reported to three significant figures, and CV %, reported to one decimal place.
# [2] = rat, in vivo
# Experimental: This study was comprised of one group of three male CD® (Sprague-Dawley) IGS rats.
# Clinical observations were recorded approximately 1 hour post-dose on Days 1-4 and twice on Day 5, once post-AMX0035 administration and once post-TDF administration. Body weight measurements were recorded prior to randomization and then daily through the end of the study.
# Nominal dose values and nominal sampling times were used for calculations. […] Pharmacokinetic analysis included the determination of Cmax, Tmax, AUClast, Tlast, and AUC0-24.
# OCT2 [3] = biological target: T3, OCT2 (Homo sapiens, UniProt O15244); assay: OCT2 inhibition, MPP+ uptake in transfected HEK cells; conditions: no inhibitor
# T3 sequence (O15244 1-555): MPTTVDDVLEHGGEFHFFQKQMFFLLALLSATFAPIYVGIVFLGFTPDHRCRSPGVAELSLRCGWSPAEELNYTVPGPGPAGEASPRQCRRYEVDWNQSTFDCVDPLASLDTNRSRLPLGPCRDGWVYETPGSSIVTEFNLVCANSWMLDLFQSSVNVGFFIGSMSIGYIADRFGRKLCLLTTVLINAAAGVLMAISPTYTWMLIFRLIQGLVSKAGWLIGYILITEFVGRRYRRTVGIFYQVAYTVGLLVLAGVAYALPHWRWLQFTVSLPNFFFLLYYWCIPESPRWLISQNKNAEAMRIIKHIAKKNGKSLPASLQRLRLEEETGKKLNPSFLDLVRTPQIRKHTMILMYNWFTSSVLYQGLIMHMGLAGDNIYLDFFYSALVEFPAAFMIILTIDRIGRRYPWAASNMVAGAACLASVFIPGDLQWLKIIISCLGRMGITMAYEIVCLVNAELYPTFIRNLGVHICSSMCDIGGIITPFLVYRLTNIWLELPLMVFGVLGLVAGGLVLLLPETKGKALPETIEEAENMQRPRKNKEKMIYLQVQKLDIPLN
# OCT2 [4] = biological target: T3, OCT2; assay: Substrate of OCT2, uptake in HEK293 cells; conditions: probe substrate 1 μM
# Description: as §1
# human hepatocytes = assay: Cell viability after CYP induction treatment (MTS); conditions: controls at induction concentrations
# Experimental: Plateable and inducible cryopreserved human hepatocytes were thawed and isolated in human hepatocyte thawing medium. […] After attachment (4 hours), the medium was changed to fresh hepatocyte culture medium for overnight cell recovery. […] A positive control (100 μM chlorpromazine) was treated in parallel.
# After the CYP induction treatment, the cells were used for cell viability assay. The viability of cells (expressed as the percentage of MTS absorbance relative to vehicle control) was measured as described herein.
# CYP2B6 mRNA = CYP2B6 mRNA induction in human hepatocytes (qPCR); conditions: phenobarbital 1,000 μM, flumazenil 10 μM
# Experimental: Plateable and inducible cryopreserved human hepatocytes were thawed and isolated in human hepatocyte thawing medium.
# All experiments were performed in triplicate.
# After induction treatment, CYP mRNA expression was measured by qPCR. Total RNA was isolated from the treated cells using the RNeasy® mini kit (Qiagen, Valencia, CA, USA) and treated with RNase-free DNase (Qiagen) following the manufacturer's protocols. The concentration of RNA was determined using a Qubit® Fluorometer with a Qubit RNA HS assay kit (Invitrogen). cDNA was synthesized from up to […] of the total RNA harvested from the cells using a QuantiTect® RT kit (Qiagen). Analysis of CYP gene expression by qPCR (Table 3) was performed using the LightCycler® 480 II System (Roche Diagnostics Corporation, Indianapolis, IN, USA).
# Relative mRNA was expressed as the fold-increase calculated from the normalized mRNA level (2^−ΔΔCt) relative to vehicle control. The percentage of mRNA fold-increase relative to positive control was calculated using the following equation:
# % Induction relative to positive control=100×(mRNATA−mRNAvehicle)/(mRNApositive control−mRNAvehicle)
# [5] = Vector Control Cells, replicates
compound,measurement,setting,value
"CO[C@H]1/C=C/O[C@@]2(C)Oc3c(C)c([O-])c4c(O)c(cc(O)c4c3C2=O)NC(=O)/C(C)=C\C=C\[C@H](C)[C@H](O)[C@@H](C)[C@@H](O)[C@@H](C)[C@H](OC(C)=O)[C@@H]1C.[Na+] [RSV, rifamycin SV]",Influx Rate of […] Atorvastatin (5 min),"OATP1B3; 10 μM RSV, Average",0.573 pmol/mg protein/minute
same,Influx Rate of […] Atorvastatin (5 min),"OATP1B3; 10 μM RSV, replicates",0.576 pmol/mg protein/minute and 0.571 pmol/mg protein/minute
same,Net Influx Rate of […] Atorvastatin,"OATP1B3; OATP1B3, 10 μM RSV",0.0551 pmol/mg protein/minute
same,Percentage Inhibition,"OATP1B3; OATP1B3, 10 μM RSV",98.1%
same,% inhibition of atorvastatin uptake,OATP1B3; known inhibitor,98.1%
same,Influx Rate of […] Atorvastatin (5 min),"OATP1B1; 10 μM RSV, OATP1B1-HEK Cells, Average",0.702 pmol/mg protein/minute
same,Influx Rate of […] Atorvastatin (5 min),"OATP1B1; 10 μM RSV, OATP1B1-HEK Cells, replicates",0.724 pmol/mg protein/minute and 0.681 pmol/mg protein/minute
same,Influx Rate of […] Atorvastatin (5 min),"OATP1B1; 10 μM RSV, Vector Control Cells, Average",0.518 pmol/mg protein/minute
same,Influx Rate of […] Atorvastatin (5 min),"OATP1B1; 10 μM RSV, Vector Control Cells, replicates",0.496 pmol/mg protein/minute and 0.541 pmol/mg protein/minute
same,Net Influx Rate of […] Atorvastatin,"OATP1B1; OATP1B1, 10 μM RSV",0.184 pmol/mg protein/minute
same,Percentage Inhibition,"OATP1B1; OATP1B1, 10 μM RSV",96.7%
same,% inhibition of atorvastatin uptake,OATP1B1; known inhibitor,96.7%
C[C@]12CC[C@@H]3c4ccc(OS(=O)(=O)O)cc4CC[C@H]3[C@@H]1CCC2=O [3H-estrone-3-sulfate],Fold uptake over the vector control by OAT3,OAT3,25.9 fold
CN(C)C(=N)N=C(N)N [metformin],Net Influx Rate of 50 μM Metformin,MATE2K; MATE2K,36.1 pmol/mg protein/minute
same,Influx rate ratio (MATE2K over vector control),MATE2K,2.70
same,Influx Rate of 50 μM Metformin (10 min),"MATE2K; MATE2K HEK Cells, Average",57.4 pmol/mg protein/minute
same,Influx Rate of 50 μM Metformin (10 min),"MATE2K; MATE2K HEK Cells, replicates",54.5 pmol/mg protein/minute and 60.2 pmol/mg protein/minute
same,Influx Rate Ratio of metformin,MATE2K; MATE2K over vector control,2.70
same,Influx Rate of 50 μM Metformin (10 min),"MATE2K; Vector Control Cells, Average",21.3 pmol/mg protein/minute
same,Influx Rate of 50 μM Metformin (10 min),MATE2K; [5],19.6 pmol/mg protein/minute and 22.8 pmol/mg protein/minute
same,Net Influx Rate of 50 μM Metformin,MATE1; MATE1,572 pmol/mg protein/minute
same,Influx rate ratio (MATE1 over vector control),MATE1,43.4
same,Influx Rate of 50 μM Metformin (10 min),"MATE1; MATE1-HEK Cells, Average",586 pmol/mg protein/minute
same,Influx Rate of 50 μM Metformin (10 min),"MATE1; MATE1-HEK Cells, replicates",515 pmol/mg protein/minute and 656 pmol/mg protein/minute
same,Influx Rate Ratio of metformin,MATE1; MATE1 over vector control,43.4
same,Influx Rate of 50 μM Metformin (10 min),"MATE1; Vector Control Cells, Average",13.5 pmol/mg protein/minute
same,Influx Rate of 50 μM Metformin (10 min),MATE1; [5],15.6 pmol/mg protein/minute and 11.3 pmol/mg protein/minute
C[C@H](Cn1cnc2c(N)ncnc21)OCP(=O)(O)O [Tenofovir],Amount Recovered,"[1]; Day 1, TDF only 25 mg/kg, individual animals",77300 ng and 63200 ng and 234000 ng
same,Amount Recovered,"[1]; Day 1, TDF only 25 mg/kg, mean",125000 ng
same,Amount Recovered,"[1]; Day 5, AMX0035 + TDF 840/25 mg/kg, individual animals",764000 ng and 296000 ng and 99500 ng
same,Amount Recovered,"[1]; Day 5, AMX0035 + TDF 840/25 mg/kg, mean",386000 ng
same,Fold increase of mean AUClast in the presence of AMX0035,[2],2.17 fold
same,Fold increase of mean Cmax in the presence of AMX0035,[2],1.24 fold
same,Individual Tmax,[2],15 min
"C[n+]1ccc(-c2ccccc2)cc1 [MPP+, 1-methyl-4-phenylpyridinium]",Net Influx Rate of 5 μM MPP+,OCT2 [3]; OCT2,847 pmol/mg protein/minute
same,Influx rate ratio (OCT2 over vector control),OCT2 [3],48.9
same,Influx Rate of 5 μM MPP+ (2 min),"OCT2 [3]; OCT2-HEK Cells, Average",864 pmol/mg protein/minute
same,Influx Rate of 5 μM MPP+ (2 min),"OCT2 [3]; OCT2-HEK Cells, replicates",896 pmol/mg protein/minute and 833 pmol/mg protein/minute
same,Influx Rate Ratio of MPP+,OCT2 [3]; OCT2 over vector control,48.9
same,Influx Rate of 5 μM MPP+ (2 min),"OCT2 [3]; Vector Control Cells, Average",17.7 pmol/mg protein/minute
same,Influx Rate of 5 μM MPP+ (2 min),OCT2 [3]; [5],19.0 pmol/mg protein/minute and 16.3 pmol/mg protein/minute
CN(C)C(N)=NC(=N)N [14C-metformin],Fold uptake over the vector control by OCT2,OCT2 [4],43.7 fold
"CC(C)OC(=O)OCOP(=O)(CO[C@H](C)Cn1cnc2c(N)ncnc21)OCOC(=O)OC(C)C [TDF, Tenofovir Disoproxil Fumarate]",Urine concentrations,"[1]; male, Sprague-Dawley, rat, in vivo","Urine concentrations for PB analysis in all animals on Day 1, for TUDCA analysis in all animals on Days 1 and 5, and for TDF analysis in two animals on Day 1 and one animal on Day 5 were BLQ (<20 mg/mL) so no recovery data was calculated."
same,Prodrug in plasma,[2],No prodrug (TDF) was detected in plasma
"CCC1(c2ccccc2)C(=O)NC(=O)NC1=O [Phenobarbital, phenobarbital]",% MTS absorbance relative to vehicle control,human hepatocytes; donor 1,97.7%
same,"Formazan absorbance, mean (n=6)",human hepatocytes; donor 1,0.417
same,% MTS absorbance relative to vehicle control,human hepatocytes; donor 2,98.8%
same,"Formazan absorbance, mean (n=6)",human hepatocytes; donor 2,0.504
same,% MTS absorbance relative to vehicle control,human hepatocytes; donor 3,108%
same,"Formazan absorbance, mean (n=6)",human hepatocytes; donor 3,0.320
same,% induction relative to positive control,CYP2B6 mRNA; donor 1,100%
same,"CYP2B6 mRNA fold-increase, mean",CYP2B6 mRNA; donor 1,21.8 fold
same,% induction relative to positive control,CYP2B6 mRNA; donor 2,100%
same,"CYP2B6 mRNA fold-increase, mean",CYP2B6 mRNA; donor 2,39.6 fold
same,% induction relative to positive control,CYP2B6 mRNA; donor 3,100%
same,"CYP2B6 mRNA fold-increase, mean",CYP2B6 mRNA; donor 3,7.36 fold
